# Data as given in publication PMC4700268 (Frontiers in Pharmacology, 2016).
# Tests used:
# [1] = target: T1, hOCT2 (Homo sapiens, UniProt O15244); experiment: Inhibition of [3H]MPP+ uptake in hOCT2 transfected MDCK II cells; assay type: in vitro ADME; conditions: 1 μM [3H]MPP+, ETV 0–2000 μM, 2 min
# T1 construct: host or cells: MDCK II cells, transient transfection
# T1 sequence (O15244 1-555): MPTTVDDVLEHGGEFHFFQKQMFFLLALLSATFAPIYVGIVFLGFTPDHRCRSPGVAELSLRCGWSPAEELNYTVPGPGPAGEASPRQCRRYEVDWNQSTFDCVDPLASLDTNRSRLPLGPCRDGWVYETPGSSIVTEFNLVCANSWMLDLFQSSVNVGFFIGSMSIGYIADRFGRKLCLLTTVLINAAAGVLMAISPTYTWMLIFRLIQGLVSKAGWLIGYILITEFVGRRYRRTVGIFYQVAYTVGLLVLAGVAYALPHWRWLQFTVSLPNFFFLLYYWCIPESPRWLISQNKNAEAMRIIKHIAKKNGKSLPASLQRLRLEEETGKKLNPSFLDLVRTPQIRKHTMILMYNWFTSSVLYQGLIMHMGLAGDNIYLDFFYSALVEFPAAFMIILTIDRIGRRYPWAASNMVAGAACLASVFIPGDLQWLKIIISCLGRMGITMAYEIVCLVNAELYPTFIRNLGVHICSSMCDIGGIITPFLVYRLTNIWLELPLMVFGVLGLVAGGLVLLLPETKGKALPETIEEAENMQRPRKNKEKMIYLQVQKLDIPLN
# Description: (§1) Inhibitory transport assays were carried out in 24-well plates as described previously ([Mandikova et al., 2013]). Transport assays in HeLa cells transiently transfected with the hOAT1 expression construct were performed 48 h after transfection. Transport assays in MDCK II cells transiently transfected with hOCT2, hCNT2 or hCNT3 were performed 24 h after transfection. The cultivation medium was removed and the cells were washed with transport solution and preincubated for 10 min at 37°C. The standard radiolabeled substrate or tested radioactive antiviral substance dissolved in transport solution was added to the cells and incubated for 2 min. […] After the designated time period, the incubation was stopped by washing the cells twice with ice-cold solution containing 137 mM NaCl and 10 mM HEPES, pH 7.4. The cells were disintegrated with 0.1 mL of Triton X 0.5% in 100 mM NaOH for 1 h. […] IC50 values were calculated using non-linear regression analysis using GraphPad Prism software (version 6).
# [2] = target: T2, hCNT3 (Homo sapiens, UniProt Q9HAS3); experiment: Inhibition of [3H]uridine uptake in hCNT3 transfected MDCK II cells; assay type: in vitro ADME; set-up: host or cells: MDCK II cells, transient transfection; conditions: 1 μM [3H]uridine, MDCK II cells transiently transfected with hCNT3, 2 min, 37°C; read-out: IC50, inhibition of hCNT3 mediated transport
# T2 sequence (Q9HAS3 1-691): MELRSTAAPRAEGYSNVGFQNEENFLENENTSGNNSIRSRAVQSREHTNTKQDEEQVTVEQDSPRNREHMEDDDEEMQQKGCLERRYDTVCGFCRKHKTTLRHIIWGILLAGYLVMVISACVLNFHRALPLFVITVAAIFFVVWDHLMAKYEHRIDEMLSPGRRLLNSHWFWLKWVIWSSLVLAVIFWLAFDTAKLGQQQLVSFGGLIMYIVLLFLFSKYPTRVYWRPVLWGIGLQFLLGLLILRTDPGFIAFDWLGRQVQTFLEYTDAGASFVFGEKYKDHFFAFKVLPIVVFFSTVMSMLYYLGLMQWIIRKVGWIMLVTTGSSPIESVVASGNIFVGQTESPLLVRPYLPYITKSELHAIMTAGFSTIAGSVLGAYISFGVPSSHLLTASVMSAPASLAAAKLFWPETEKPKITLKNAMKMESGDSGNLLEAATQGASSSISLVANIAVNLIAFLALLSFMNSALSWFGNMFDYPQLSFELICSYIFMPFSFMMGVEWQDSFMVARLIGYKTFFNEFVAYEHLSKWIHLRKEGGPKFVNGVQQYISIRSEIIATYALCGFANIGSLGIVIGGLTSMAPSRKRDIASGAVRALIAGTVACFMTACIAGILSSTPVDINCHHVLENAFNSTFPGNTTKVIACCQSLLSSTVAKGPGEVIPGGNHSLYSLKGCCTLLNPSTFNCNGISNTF
# Description: Inhibitory transport assays were carried out in 24-well plates as described previously ([Mandikova et al., 2013]). Transport assays in HeLa cells transiently transfected with the hOAT1 expression construct were performed 48 h after transfection. Transport assays in MDCK II cells transiently transfected with hOCT2, hCNT2 or hCNT3 were performed 24 h after transfection. The cultivation medium was removed and the cells were washed with transport solution and preincubated for 10 min at 37°C. The standard radiolabeled substrate or tested radioactive antiviral substance dissolved in transport solution was added to the cells and incubated for 2 min. [^3H]PAH (1 μM) was used as a prototypical substrate for OATs, [^3H]MPP^+ (1 μM) for OCTs and [^3H]uridine (1 μM) for CNTs. […] After the designated time period, the incubation was stopped by washing the cells twice with ice-cold solution containing 137 mM NaCl and 10 mM HEPES, pH 7.4. The cells were disintegrated with 0.1 mL of Triton X 0.5% in 100 mM NaOH for 1 h.
# IC50 values were calculated using non-linear regression analysis using GraphPad Prism software (version 6).
# [3] = test system: MDCK II cells transiently transfected with hCNT2; experiment: MTS cell viability assay in hCNT2 transfected MDCK II cells; assay type: cell-based, canine; conditions: 24 h, 250–1000 μM, hCNT2 vs empty vector MDCK II cells
# Description: The controls were prepared simultaneously.
# [4] = target: T3, hOAT1 (Homo sapiens, UniProt Q4U2R8); experiment: Inhibition of [3H]PAH uptake in hOAT1 transfected HeLa cells; assay type: in vitro ADME; set-up: host or cells: HeLa cells, transient transfection; conditions: 1 μM [3H]PAH, HeLa cells transiently transfected with hOAT1, 2 min, 37°C; read-out: IC50, inhibition of hOAT1 mediated transport
# T3 sequence (Q4U2R8 1-563): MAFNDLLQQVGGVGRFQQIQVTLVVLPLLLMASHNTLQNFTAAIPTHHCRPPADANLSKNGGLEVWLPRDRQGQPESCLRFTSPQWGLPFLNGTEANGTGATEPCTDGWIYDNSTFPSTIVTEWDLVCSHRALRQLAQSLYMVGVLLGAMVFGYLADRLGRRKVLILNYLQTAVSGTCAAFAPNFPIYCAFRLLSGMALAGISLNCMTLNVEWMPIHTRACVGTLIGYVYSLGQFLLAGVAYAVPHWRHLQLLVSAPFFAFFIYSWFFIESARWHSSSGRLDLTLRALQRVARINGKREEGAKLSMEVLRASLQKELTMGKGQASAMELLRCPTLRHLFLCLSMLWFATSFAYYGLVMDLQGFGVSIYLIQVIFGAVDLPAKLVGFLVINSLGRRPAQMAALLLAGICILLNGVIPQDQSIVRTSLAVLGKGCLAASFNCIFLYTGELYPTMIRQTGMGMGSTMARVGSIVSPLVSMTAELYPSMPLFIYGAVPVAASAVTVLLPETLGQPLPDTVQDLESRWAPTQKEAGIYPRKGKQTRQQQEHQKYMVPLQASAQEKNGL
# Description: as §1
smiles,measurement,setting,value
"C=C1[C@H](CO)[C@@H](O)C[C@@H]1n1cnc2c(=O)[nH]c(N)nc21 [ETV, Entecavir]",Inhibitory interaction with hOCT2,[1],No interaction
same,IC50,[2],278 µM
same,Effect of hCNT2 expression on cytotoxicity,[3],did not prove any significant increase in cytotoxicity
same,IC50,[4],175 µM
